# Data published in patent US20120277316A1, “METHODS AND COMPOSITIONS FOR TREATING AND PREVENTING PARENTERAL NUTRITION ASSOCIATED LIVER DISEASE” (University of Tennesse Research Foundation a university, priority 2010, published 2012).
# How the values were obtained:
# Format in all cases: cell-based
# [1] = tested on: caspase 3/7 activity in HepG2 cells; experiment: Apo-ONE Homogeneous Caspase-3/7 Assay, CDCA-induced apoptosis; conditions: for caspase-3/7 attenuation: HepG2 cells, CDCA 200 μM, 12 hours, 10 μM EPA, 10 μM DHA, or 5 μM EPA+5 μM DHA
# Procedure: Cultured HepG2 cells were treated with 50, 100, or 200 μM CDCA in the presence and absence of 10 μM EPA, 10 μM DHA, or 5 μM EPA+5 μM DHA. Controls included cells incubated with vehicle alone (EtOH). Apoptosis was evaluated after 4, 8, 12, 18, and 24 hours using the Apo-ONE®
# (§1) Homogeneous Caspase-3/7 Assay (Promega Corporation, Madison, Wis., United States of America). Specific apoptotic mediators (Fas and TRAIL-R2) were evaluated at 0.5, 1, 1.5, 2, and 4 hrs using quantitative real-time RT-PCR.
# (§2) Experimental Design. HepG2 cells were plated and grown to 95% confluence for all experiments, except for fluorescent cell staining, where cells where grown to 50% confluence. Cells were treated with CDCA 50-200 mM (Sigma-Aldrich), ±EPA 1-10 μM (Nu-check Prep, Elysian, Minn., United States of America), and ±DHA 10 μM (Nu-check Prep). HepG2 cells were treated for 4, 8, 12, 18, 24 hours for cell viability and caspase assays. Cells were treated for 0.5, 1, 1.5, 2, 4 hour for mRNA analysis by quantitative real time RT-PCR.
# Caspase assay. Apoptosis was evaluated using the Apo-ONE® Homogeneous Caspase-3/7 Assay purchased from Promega Corporation (Madison, Wis., United States of America) and performed according to the manufacturer's instructions. HepG2 cells were treated for 4, 8, 12, 18, 24 hours followed by the addition of caspase-3/7 reagent and incubation for 4 hours in the dark on a rocking shaker at low speed. Results were read at fluorescein 485 nm/535 nm with a Victor 2, Perkin-Elmer Wallace 1420 multilabel counter (Shelton, Conn., United States of America).
# Fas mRNA in HepG2 cells = experiment: Fas mRNA by quantitative real-time RT-PCR; conditions: HepG2 cells incubated with CDCA 200 μM alone; 0.5 hours; relative to vehicle control
# Procedure: as §1
# as §2, with “Cells were treated with CDCA 50-200 mM (Sigma-Aldrich), ±EPA 1-10 μM (Nu-check Prep, Elysian, Minn., United States of America), and ±DHA 10 μM (Nu-check Prep).” left out
# Quantitative RT-PCR. Total RNA was isolated from confluent cultures according to manufacturer's instructions with TRIzol™ reagent (Invitrogen, Carlsbad, Calif., United States of America). First-strand cDNAs were synthesized from 2 μg of total RNA in a 21 μl reaction volume using the SuperScript™ First-Strand Synthesis System for RT-PCR (Invitrogen) in accordance with the manufacturer's instructions. Quantitative PCR was performed in triplicate using the Model 7500 Sequence Detection System (Applied Biosystems, Foster City, Calif., United States of America). […] The change in fluorescence of SYBR Green in every cycle was monitored by the system software, and the threshold cycle (CT) above the background for each reaction was calculated. […] The mRNA expression level relative to the calibrator was expressed as 2^−ΔΔCT.
# HepG2 cells [2] = experiment: Nuclear staining with ethidium bromide/acridine orange; conditions: cells treated with the substance alone, 2 hours
# Procedure: Nuclear staining. Cells were grown on glass inserts and once 50% confluence was achieved, cells were treated with CDCA±EPA for 2 hours. Immediately following treatment, cells were washed with phosphate buffered saline (PBS), fixed with methanol (−10° C.) for 15 minutes, then washed with PBS. Fixed cells were then stained for 5 minutes with ethidium bromide (100 μg/ml) and acridine orange (100 μg/ml) (EB/AO) dye mixture (Sigma-Aldrich) in PBS. Following staining, cells underwent 5 washes prior to being mounted on glass slides using VECTASHIELD® mounting medium and analyzed using an Olympus America Inc., IX50-FLA inverted reflected light fluorescence microscope (Lake Success, N.Y., United States of America).
# [3] = tested on: pro-inflammatory cytokine (IL-6) mRNA in HepG2 cells; experiment: IL-6 mRNA by quantitative RT-PCR; conditions: CDCA 200 uM, 2 hour incubation
# Procedure: Quantitative RT-PCR. Total RNA was isolated from confluent cultures according to manufacturer's instructions with TRIzol™ reagent (Invitrogen, Carlsbad, Calif., United States of America). First-strand cDNAs were synthesized from 2 μg of total RNA in a 21 μl reaction volume using the SuperScript™ First-Strand Synthesis System for RT-PCR (Invitrogen) in accordance with the manufacturer's instructions. Quantitative PCR was performed in triplicate using the Model 7500 Sequence Detection System (Applied Biosystems, Foster City, Calif., United States of America). Independent PCRs were performed using the same cDNA for both the gene of interest and the 18S rRNA, using the SYBR Green PCR Master Mix (Applied Biosystems). Specific primers were designed for the genes of interest (Fas, TRAIL-R2, and IL-6). […] The change in fluorescence of SYBR Green in every cycle was monitored by the system software, and the threshold cycle (CT) above the background for each reaction was calculated. […] The mRNA expression level relative to the calibrator was expressed as 2^−ΔΔCT. […]
# IL6 mRNA levels were measured by quantitative RT-PCR after a 2 hour incubation in a HepG2 cells. […] Statistical significance was determined using an ANOVA with Tukey's LSD. […] Statistical significance was determined using an ANOVA with Tukey's LSD.
# [4] = Cell viability by trypan blue staining; conditions: human, HepG2 cells; 2 hour treatment with CDCA alone; trypan blue; read-out: viable cells
# Procedure: as §2, with “HepG2 cells were treated for 4, 8, 12, 18, 24 hours for cell viability and caspase assays.” left out
# (§3) Cell Viability. Cell viability was evaluated after treating cells, as described above, followed by trypsinization in order to disperse cells into a 0.2% trypan blue (Sigma-Aldrich) cell suspension mixture. After staining, 10 μL of cell suspension was placed on a hemocytometer with a glass cover slip and evaluated using an inverted microscope (25× magnification). All cells were counted and viability was accessed.
# HepG2 cells [5] = experiment: Cell viability by trypan blue staining
# Procedure: as §2, with “HepG2 cells were treated for 4, 8, 12, 18, 24 hours for cell viability and caspase assays.” left out
# as §3
Compound,"apoptotic effect of CDCA (caspase 3/7 activity) ([1]; CDCA 50-200 μM, across all time points (4-24 hours))",time of peak caspase activity ([1]; HepG2 cells treated with 200 μM CDCA) [h],increase in Fas mRNA levels (Fas mRNA in HepG2 cells) [fold],EB/AO nuclear staining appearance (HepG2 cells [2]),pro-inflammatory cytokine (IL-6) mRNA expression [3],viability at 2 h [4] [%],caspase-3/7 attenuation [1] [%],"viable cells (HepG2 cells [5]; 2 hour treatment with CDCA and EPA, trypan blue) [%]",total cell count relative to cells exposed to medium alone (HepG2 cells [5]; treatment with CDCA and EPA) [%]
"C[C@H](CCC(=O)O)[C@H]1CC[C@H]2[C@@H]3[C@H](O)C[C@@H]4C[C@H](O)CC[C@]4(C)[C@H]3CC[C@]12C [CDCA, chenodeoxycholic acid]",dose-dependent,12,4.7,cellular integrity is lost,significantly increased,88,,,
"CC/C=C\C/C=C\C/C=C\C/C=C\C/C=C\C/C=C\CCC(=O)O [DHA, docosahexaenoic acid]",,,,,,,9,,
"CC/C=C\C/C=C\C/C=C\C/C=C\C/C=C\CCCC(=O)O [EPA, eicosapentaenoic acid]",,,,,,,22,100,75
